Measurements from patent publication US20230142274A1 (SIMCERE PHARMACEUTICAL CO., LTD., priority 2020, published 2023).

How the values were obtained:
[1] = Metabolic stability in liver microsomes (CD-1 mouse); type: in vitro ADME; settings: pH 7.4; CD-1 mouse liver microsomes 0.5 mg/mL, compound 1 μM, NADPH 1 mM, 37° C.
Protocol: (§1) 1. Source of liver microsomes: human liver microsomes (Corning 452117), CD-1 mouse liver microsomes (XENOTECH M1000)
(§2) 1. Formulation of 100 mM phosphate buffer solution (PBS): 7.098 g of Na2HPO4 was weighed and ultrasonically dissolved in 500 mL of pure water to form Solution A. 3.400 g of KH2PO4 was weighed and ultrasonically dissolved in 250 mL of pure water to form Solution B. Solution A was placed in a stirrer and Solution B was slowly added until the pH value reached 7.4, thus formulating 100 mM PBS buffer solution.
(§3) The reaction system was formulated according to Table 3 below.
(§4) 3. The reaction system was placed in a water bath at 37° C. and pre-incubated for 10 minutes. 40 μL of 10 mM NADPH solution (NADPH was dissolved in 100 mM phosphate buffer solution) was added into the reaction system, and the final concentration of NADPH was 1 mM. 40 μL of Phosphate buffer solution was used instead of the NADPH solution as a negative control. The negative control was used to rule out the influence caused by the chemical stability of the compounds per se.
(§5) 4. The reaction system was added with 4 μL of 100 μM the compound of the present disclosure and Verapamil (the positive control compound) (DMSO as the vehicle), so that the reaction was initiated. The final concentration of the compound was 1 μM.
(§6) 5. At 0.5, 15, 30, 45 and 60 minutes, after being well mixed in a vortex oscillator, 50 μL of the incubated samples were taken out respectively, and the reaction was terminated with ice acetonitrile (4-fold) containing an internal standard. The samples were centrifuged at 3220 g for 45 minutes. After the centrifugation, 90 μL of the supernatants were transferred to a sample plate and mixed well with 90 μL of ultrapure water for LC-MS/MS analysis.
(§7) All data were calculated by Microsoft Excel software. Peak areas were determined from the extracted ion chromatograms. The in-vitro half-life (t1/2) of the parent drug was determined by the linear fitting of the natural logarithm of the elimination percentage of the parent drug versus time.
(§8) The in-vitro half-life (t1/2) was calculated from the slope: […]

Daudi cells = assay: Inhibition of human Daudi lymphoma cell proliferation (Cell-Titer Glo); type: cell-based; settings: Homo sapiens, 72 h, 3 days incubation, read-out: Anti-Proliferative Activity Against Daudi cells IC50
In short: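 Daudi cells in RPMI 1640 with 10% FBS were seeded and grown 24 h, then exposed for 3 days (37 °C, 5% CO2) to 10-point 3-fold serial dilutions at 0.25% final DMSO. Viability was read by CellTiter-Glo ATP luminescence, and IC50 was fitted from % inhibition against top/bottom controls.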

WI-38 cells = assay: Inhibition of human WI-38 embryonic lung cell proliferation (Cell-Titer Glo); type: cell-based; settings: Homo sapiens, 72 h, 3 days incubation, read-out: Anti-Proliferative Activity Against WI-38 cells IC50
Protocol: Introduction of the experimental principle: After the RAD51 inhibitor to be tested was co-incubated with human embryonic lung cells for a period of time, the influence of the test compound on cell proliferation was measured by a method for counting cell proliferation based on the quantitative measurement of intracellular ATP content.
Materials and Cells: WI-38 cells were purchased from ATCC; fetal bovine serum, 1640 medium and penicillin-streptomycin were purchased from Gibco Inc. (U.S.), 96-well plates were purchased from Corning Inc. (U.S.), and Cell-Titer Glo reagent was purchased from Promega Corporation (U.S.).
Cell culture: WI-38 cells were cultured in an EMEM culture medium containing 10% fetal bovine serum and 1% penicillin-streptomycin at 37° C. in an atmosphere containing 5% CO2. Cells in logarithmic growth phase could be used for experiments.
Assay of cell proliferation and viability: Cell-Titer Glo reagent was used to measure the inhibitory activities of the compounds on the proliferation of WI-38 cell strain. The concentration of cells was adjusted, and the cells were seeded in a 96-well plate and cultured at 37° C. in an atmosphere containing 5% CO2 for 24 hours. The powder of the compound was dissolved in 100% DMSO to form a 10 mM solution. 10 μl of the solution of the compound was aspirated and transferred into a 96-well compound plate containing 20 μl of DMSO solution in each well for 3-fold dilution and was then formulated to 10 serial dilutions. Thereafter, 2 μl of the solution of the compound was aspirated from the corresponding well and added correspondingly into a 96-well intermediate compound dilution plate containing 78 μl of complete culture medium in each well. The resultant was mixed well, and the plate was centrifuged at 1000 rpm for 1 minute. Finally, 10 μl of the solution of the compound was aspirated from the corresponding well of the 96-well intermediate compound dilution plate, and transferred into the corresponding well of the cell culture plate containing 90 μl of complete culture medium. The final concentration of DMSO was 0.25%. After the addition of the compound, the cells were continued to be incubated for 3 days at 37° C. in an atmosphere containing 5% CO2. Cell-Titer Glo reagent was added to measure cell viability.
% Compound inhibition was calculated and IC50 of the compound was fitted;
% Compound inhibition=1−100%×(Signal−Bottom)/(Top−Bottom)

[2] = Metabolic stability in liver microsomes (human); type: in vitro ADME; settings: pH 7.4; Human being liver microsomes 0.5 mg/mL, compound 1 μM, NADPH 1 mM, 37° C.
Protocol: as §1, §2, §3, §4, §5, §6, §7, §8

[3] = Pharmacokinetic experiment in mouse; type: in vivo; settings: female CB17-SCID mice, oral dose 25 mg/kg
Text: CB17-SCID mice were purchased from Beijing Vital River Laboratory Animal Technology Co., Ltd.
DMSO, HP-β-CD (hydroxypropyl-β-cyclodextrin), PEG400 (polyethylene glycol 400), and Vitamin E TPGS (D-α-tocopherol polyethylene glycol 1000 succinate) were purchased from Sigma.
Six female CB17-SCID mice (20 g to 30 g, aged 4 to 6 weeks) were divided randomly into two groups, with 3 mice in each group. In Group 1, the compound in a vehicle of an aqueous solution containing 5% dimethyl sulfoxide and 95% hydroxypropyl-β-cyclodextrin (10%, w/v) was administered by intravenous injection via tail vein. In Group 2, a corresponding dose of the compound in a vehicle of an aqueous solution containing 30% polyethylene glycol 400 and 70% D-α-tocopherol polyethylene glycol 1000 succinate (10%, w/v) was orally administered. The animals were fed normally with food and water before experiment. The mice in each group underwent intravenous blood collection before administration and at 0.083 h (intravenous injection group only), 0.25 h, 0.5 h, 1 h, 2 h, 4 h, 6 h, 8 h, and 24 h after administration. The collected whole blood samples were placed in K2EDTA anticoagulation tubes and centrifuged for 5 min (4000 rpm, 4° C.) to collect the plasma for testing.
10 μL of the mouse plasma sample was taken, and 150 μL of acetonitrile solvent (containing the internal standard compound) was added to precipitate protein. After the resultant was vortexed for 0.5 min and centrifuged (4700 rpm, 4° C.) for 15 min, the supernatant was subjected to 2-fold dilution with water containing 0.05% (v/v) FA and was then subjected to quantitative measurement in LC-MS/MS system (AB Sciex Triple Quad 6500+). A calibration standard curve was prepared in CB17-SCID mouse plasma along with quality control samples to determine the plasma concentration. As for a 10× diluted sample, 2 μL of sample was taken and 18 μL of blank plasma was added. After being vortexed for 0.5 min, the mixture was added with 300 μL of acetonitrile solvent (containing the internal standard compound) so as to precipitate protein. The rest of the processing steps were the same as those for the undiluted samples.

SMILES | half-life at 1 μM [1] | IC50 (Daudi cells) | IC50 (WI-38 cells) | half-life at 1 μM [2] | Drug Exposure [3] | Max. Drug Conc. [3] | Peak Time of Drug Conc. [3] | half-life ([3]; mouse, plasma, read-out: Drug Elimination Half-life (converted))
CC(C)OC(=O)NC1CCC(c2ncc(-c3ccc(Nc4cnn(CCO)c4)cc3S(=O)(=O)C3CC3)s2)CC1 (stereo not drawn) [Example 84, isopropyl trans-N-[4-[5-[2-cyclopropylsulfonyl]-4-[[1-(2-(hydroxyethyl)pyrazol-4-yl]amino]phenyl]thiazol-2-yl]cyclohexyl]carbamate] | 1.87 h | 7 nM | > 25000 nM | 1.12 h |  |  |  | 
CC(C)OC(=O)NC1CCC(c2ncc(-c3ccc(Nc4cnn(C)c4)cc3S(=O)(=O)C3CC3)s2)CC1 (stereo not drawn) [Example 70, isopropyl trans-N-[4-[5-[2-cyclopropylsulfonyl]-4-[(1-methylpyrazol-4-yl)amino]phenyl]thiazol-2-yl]cyclohexyl]carbamate] |  | 8 nM | 21000 nM |  | 137.892 µg·h/mL | 32840 ng/mL | 0.75 h | 5 h
CC(C)OC(=O)NC1CCC(c2ncc(-c3ccc(Nc4cnn(C5COC5)c4)cc3S(=O)(=O)C3CC3)s2)CC1 (stereo not drawn) [Example 86, isopropyl trans-N-[4-[5-[2-cyclopropylsulfonyl]-4-[[1-(oxetan-3-yl)pyrazol-4-yl]amino]phenyl]thiazol-2-yl]cyclohexyl]carbamate] | 1.4 h | 3 nM | > 25000 nM | 1.78 h |  |  |  | 
CC(C)OC(=O)NC1CCC(c2ncc(-c3ccc(Nc4cnn(CCF)c4)cc3S(=O)(=O)C3CC3)s2)CC1 (stereo not drawn) [Example 85, isopropyl trans-N-[4-[5-[2-cyclopropylsulfonyl]-4-[[1-(2-fluoroethyl)pyrazol-4-yl]amino]phenyl]thiazol-2-yl]cyclohexyl]carbamate] | 0.85 h | 0.6 nM | 17000 nM | 1.37 h |  |  |  | 
CC(C)OC(=O)N[C@H]1CC[C@H](c2ncc(-c3ccc(Nc4cc(CO)[nH]n4)cc3S(=O)(=O)C3CC3)s2)CC1 [Example 72, isopropyl trans-(4-(5-(2-(cyclopropylsulfonyl)-4-((5-(hydroxymethyl)-1H-pyrazol-3-yl)amino)phenyl)thiazol-2-yl)cyclohexyl)carbamate] | 4.52 h | 4 nM | 20000 nM | 7.03 h |  |  |  | 
